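Cultured in 96-well plates, cells were exposed to test compound for 48 hours across five concentrations. GI50 marks 50% less growth. TGI: total growth inhibition.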
Key:
Test in all cases: DTP human tumour cell line panel, 48 h
A498 renal = system: A498 renal
HCC-2998 colon = system: HCC-2998 colon
SK-MEL-28 melanoma = system: SK-MEL-28 melanoma
HOP-62 NSCLC = system: HOP-62 NSCLC
NCI-H522 lung = system: NCI-H522 lung
SW-620 colon = system: SW-620 colon
ACHN renal = system: ACHN renal
CCRF-CEM leukemia = system: CCRF-CEM leukemia
NCI-H226 lung = system: NCI-H226 lung
DU-145 prostate = system: DU-145 prostate

| Structure (SMILES) | TGI (A498 renal) [µM] | TGI (HCC-2998 colon) [µM] | TGI (SK-MEL-28 melanoma) [µM] | TGI (HOP-62 NSCLC) [µM] | TGI (NCI-H522 lung) [µM] | TGI (SW-620 colon) [µM] | TGI (ACHN renal) [µM] | TGI (CCRF-CEM leukemia) [µM] | TGI (NCI-H226 lung) [µM] | GI50 (A498 renal) [µM] | GI50 (HCC-2998 colon) [µM] | GI50 (SK-MEL-28 melanoma) [µM] | GI50 (HOP-62 NSCLC) [µM] | GI50 (NCI-H522 lung) [µM] | GI50 (SW-620 colon) [µM] | GI50 (ACHN renal) [µM] | GI50 (CCRF-CEM leukemia) [µM] | GI50 (DU-145 prostate) [µM] | TGI (DU-145 prostate) [µM] | GI50 (NCI-H226 lung) [µM] |
| --- | --- | --- | --- | --- | --- | --- | --- | --- | --- | --- | --- | --- | --- | --- | --- | --- | --- | --- | --- | --- |
| CS/C(=N\C(=S)N(C)C)N(c1ccccc1)c1nc(=[N+](C)C)ss1 | 7.04 | 28.9 | 9.22 | 52.9 | 5.36 | 16.3 | > 100 | 8.45 |  |  |  |  |  |  |  |  |  |  |  |  |
| COc1ccc(C2CC(=O)c3c(O)cc(O)cc3O2)cc1O (stereo not drawn) | > 100 | > 100 | > 100 | > 100 | > 100 | > 100 | > 100 | > 100 | > 100 |  |  |  |  |  |  |  |  |  |  |  |
| CN(C)c1ccc2c(=O)c3ccccc3oc2n1 |  | > 100 | > 100 | > 100 | > 100 | > 100 | > 100 | > 100 |  |  |  |  |  |  |  |  |  |  |  |  |
| COc1ccccc1/C=C(\C#N)c1ccccc1 | 66.1 | > 100 | > 100 | > 100 | 44.7 | > 100 | > 100 | 55.2 | > 100 |  |  |  |  |  |  |  |  |  |  |  |
| CN1C(=O)CC(c2cccc(C3CC(=O)N(C)C3=O)n2)C1=O (stereo not drawn) | > 100 | > 100 | > 100 | > 100 | > 100 | > 100 | > 100 | > 100 | > 100 |  |  |  |  |  |  |  |  |  |  |  |
| FC(F)(F)Oc1cccc(-c2cnc3ccc(-c4ccncc4)nn23)c1 | 2.42 | > 100 | > 100 | > 100 | 2.82 | > 100 | 4.8 | 27 |  | 0.365 | 4.47 | 2.53 | 2.17 | 0.771 | 0.801 | 0.447 | 2.03 | 1.6 | > 100 |  |
| Cc1ccccc1NC(=O)C(=O)C(C#N)c1ccc(Cl)cc1 (stereo not drawn) | > 100 | 75.9 | > 100 | > 100 | > 100 | 31.2 | > 100 | > 100 | > 100 |  |  |  |  |  |  |  |  |  |  |  |
| COc1ccc(C(=O)c2cc(OC)c(OC)c(OC)c2)cc1 |  | > 14 | > 95.8 | > 100 | 0.238 | > 100 | > 91.3 | > 100 | 37.9 |  |  |  |  |  |  |  |  |  | 1.58 |  |
| O=C(Nc1ccc(Cl)c(Cl)c1)c1cccc(NC2=C(Cl)C(=O)N(Cc3ccccc3)C2=O)c1 | > 100 |  | > 100 | > 100 | 45.5 | > 100 | > 100 | > 100 | > 100 | 23.8 |  | > 100 | > 100 | 16.6 | 48.8 | 39.8 | 23.4 | 20.6 | > 100 | 35.5 |
| CCOc1ccccc1NC(=O)CC1C(=O)Nc2ccccc2S1=O (stereo not drawn) | > 100 | > 100 | > 100 |  | > 100 | > 100 | > 100 | > 100 | > 100 |  |  |  |  |  |  |  |  |  |  |  |
| Cc1ccc(S(=O)(=O)OC2CCN(C)CC2)cc1 |  |  | > 100 | > 100 | 46.5 | 42 | > 100 |  |  |  |  |  |  |  |  |  |  |  | > 100 |  |
| O=C(O)C/C(=C\c1ccco1)C(=O)O | > 100 |  | > 100 | > 100 | > 100 | > 100 | > 100 |  | > 100 |  |  |  |  |  |  |  |  |  | > 100 |  |
| O=C(Nc1ccccc1-c1n[nH]c(=S)[nH]c1=O)C(F)(F)F |  | > 100 | > 100 | > 100 | > 100 | > 100 | > 100 | > 100 | > 100 |  |  |  |  |  |  |  |  |  |  |  |
| Clc1ncnc(Cl)c1Cl |  | > 100 | > 100 | > 100 | > 100 | > 100 | > 100 | > 100 | > 100 |  |  |  |  |  |  |  |  |  | > 100 |  |
| Cc1ccc(S(=O)(=O)N[C@H](C(=O)O)c2ccccc2)cc1 | > 100 | > 100 | > 100 |  | > 100 | > 100 | > 100 | > 100 | > 100 |  |  |  |  |  |  |  |  |  |  |  |
| Cc1cn(Cc2ccccc2CCO)c(=S)[nH]c1=O | > 100 |  | > 100 | > 100 | > 100 | > 100 | > 100 | > 100 | > 100 |  |  |  |  |  |  |  |  |  |  |  |
| CC(C)(C)OC1=C(OC(C)(C)C)C(O)(c2ccccc2)C1=O (stereo not drawn) | > 100 | > 100 | > 100 |  |  | > 100 | > 100 | > 100 |  |  |  |  |  |  |  |  |  |  |  |  |
| N#Cc1ccccc1NC(=O)/C(=N\N)C(C(=O)c1ccncc1)C1OC(=O)c2ccccc21 (stereo not drawn) |  | > 100 | > 100 | > 100 | > 100 | > 100 | > 100 | > 100 | > 100 |  |  |  |  |  |  |  |  |  |  |  |
| O=C(Nc1ccc(Cl)cc1Cl)C1C(=O)N(c2ccc(Cl)cc2Cl)C(=O)/C1=N\Nc1ccc([N+](=O)[O-])cc1[N+](=O)[O-] (stereo not drawn) | > 100 | > 100 | > 100 | > 100 | 71 | > 100 | > 100 | > 100 | > 100 |  |  |  |  |  |  |  |  |  |  |  |
| CC(C)/C=C1\CCC(CN2CCCC2)C1=O (stereo not drawn) | > 59 | 34.2 | 32.9 | > 100 | 3.71 | 7.94 | 32.2 | 17.3 | 49.6 |  |  |  |  |  |  |  |  |  |  |  |
| COc1cccc(C2c3cc4c(cc3OC(C)(N3CCCC3)C2C)OCO4)c1OC (stereo not drawn) |  | 53.2 | > 100 | 30.6 | 52.3 | > 100 | 31.6 | 35.7 | 58.5 |  |  |  |  |  |  |  |  |  | 49.9 |  |
| O=C(Nc1c(O)[nH]c(=S)[nH]c1=O)c1ccccc1F | > 100 |  | > 100 | > 100 | > 100 | > 100 | > 100 | > 100 | > 100 |  |  |  |  |  |  |  |  |  |  |  |
| CC(C)(C)NNC(=O)/C(=C/c1ccc([N+](=O)[O-])cc1)NC(=O)c1ccccc1 | > 100 | > 100 | > 100 | > 100 | 73.3 |  | > 100 | 99.1 | 96.5 |  |  |  |  |  |  |  |  |  |  |  |

Reference: PubChem BioAssay (NCI)
